Data from patent US20090311237A1, “Combination therapy using a soluble hyaluronidase and a bisphosphonate” (priority 2008, published 2009).
Where two headings read alike, the source gives them in different places.

Assay: Pharmacokinetics of ZA in pig serum after IV or SC infusion with or without rHuPH20 (LC-MS-MS, non-compartmental analysis)
Type: in vivo
Settings: female, Yorkshire, pig, serum, subcutaneous, […], ZA […], read-out: Zoledronic Acid Serum Concentration
Method: A pharmacokinetic study of zoledronic acid (ZA) co-administered with rHuPH20 in female Yorkshire swines was conducted. The primary objective of the study was to determine the bioavailability of zoledronic acid dosed via subcutaneous (SC) co-administration with human recombinant hyaluronidase PH20 (rHuPH20) and to compare the overall exposure to an equivalent IV dose.
Animals in Study Group 1 were dosed with 0.15 mg/kg ZA given via a 20-minute IV infusion. Animals in Study Groups 2 and 3 were dosed subcutaneously (SC) with 0.15 mg/kg ZA without and with rHuPH20, respectively, in different SC delivery volumes.
Following ZA dose administration, serial blood samples were collected via vascular access ports (VAPs) for serum preparation and determination of ZA concentrations. Blood collection times were at 1, 3, 5, 10, 15, 20, 30, 45, and 60 minutes, and at 1.5, 2, 3, 4, 6, 8, 10, 24, 48, and 72 hours post dose. Urine samples were also collected to compare excretion characteristics between IV and SC routes of administration. Collection times for urine were at 15 minutes before dosing (−15 min.), continuously from dose initiation to 2 hours post dose, and at 4, 6, 8, and 24 hours post dose thereafter.
Serum concentration of ZA was determined using a qualified LC-MS-MS assay after derivatization with diazomethane (Zhu, L S et al. (2006) Rapid Commun. Mass Spectrom. 20: 3421-3426; “Qualification Data of An LC-MS/MS Method for the Determination of Zoledronate in Porcine Serum”, MDS Pharma Services Study No. AA43671-01, Report Date 14 Sep. 2007). The assay range was from 2.0 to 400 ng/mL with a lower limit of quantitation (LLOQ) at 2.0 ng/mL. Urine concentration of ZA was determined by a similar well qualified LC-MS-MS method (“Qualification Data of An LC-MS/MS Method for the Determination of Zoledronate in Porcine Urine”, MDS Pharma Services Study No. AA43671-02, Report Date 14 Sep. 2007) with an assay LLOQ at 10 ng/mL.
Pharmacokinetic (PK) analyses of ZA serum concentration versus time data were conducted using WinNonlin v5.1 (Pharsight, Mountain View, Calif.). Non-compartmental analysis was used for derivation of primary and secondary pharmacokinetic (PK) parameters. AUC, Cmax, and Tmax were compared between dose routes, between co-administration with rHuPH20, and with dose of rHuPH20.

## O=P(O)(O)C(O)(Cn1ccnc1)P(=O)(O)O [ZA, 1-hydroxy-2-(1H-imidazol-1-yl)ethylidene-1,1-bisphosphonic acid]
Time 1 h, pig ID 70, Study Group 2, SC, 10 mL, 1.6 min, rHuPH20 0 U/mL
  concentration at 1 h: 101 ng/mL
Time 2 h, pig ID 59, Study Group 2, SC, 100 mL, 16 min, rHuPH20 0 U/mL
  concentration at 2 h: 22.9 ng/mL
Time 2 h, pig ID 60, Study Group 2, SC, 100 mL, 16 min, rHuPH20 0 U/mL
  concentration at 2 h: 75.8 ng/mL
Time 2 h, pig ID 62, Study Group 2, SC, 50 mL, 8 min, rHuPH20 0 U/mL
  concentration at 2 h: 28.4 ng/mL
Time 2 h, pig ID 69, Study Group 2, SC, 25 mL, 4 min, rHuPH20 0 U/mL
  concentration at 2 h: 31.8 ng/mL
Time 2 h, pig ID 70, Study Group 2, SC, 10 mL, 1.6 min, rHuPH20 0 U/mL
  concentration at 2 h: 37.7 ng/mL
Time 3 h, pig ID 59, Study Group 2, SC, 100 mL, 16 min, rHuPH20 0 U/mL
  concentration at 3 h: 13.3 ng/mL
Time 3 h, pig ID 60, Study Group 2, SC, 100 mL, 16 min, rHuPH20 0 U/mL
  concentration at 3 h: 27.5 ng/mL
Time 3 h, pig ID 62, Study Group 2, SC, 50 mL, 8 min, rHuPH20 0 U/mL
  concentration at 3 h: 13.5 ng/mL
Time 3 h, pig ID 69, Study Group 2, SC, 25 mL, 4 min, rHuPH20 0 U/mL
  concentration at 3 h: 20.5 ng/mL
Time 3 h, pig ID 70, Study Group 2, SC, 10 mL, 1.6 min, rHuPH20 0 U/mL
  concentration at 3 h: 22.2 ng/mL
Time 4 h, pig ID 59, Study Group 2, SC, 100 mL, 16 min, rHuPH20 0 U/mL
  concentration at 4 h: 6.48 ng/mL
Time 4 h, pig ID 60, Study Group 2, SC, 100 mL, 16 min, rHuPH20 0 U/mL
  concentration at 4 h: 9.03 ng/mL
Time 4 h, pig ID 62, Study Group 2, SC, 50 mL, 8 min, rHuPH20 0 U/mL
  concentration at 4 h: 4.74 ng/mL
Time 4 h, pig ID 69, Study Group 2, SC, 25 mL, 4 min, rHuPH20 0 U/mL
  concentration at 4 h: 8.11 ng/mL
Time 4 h, pig ID 70, Study Group 2, SC, 10 mL, 1.6 min, rHuPH20 0 U/mL
  concentration at 4 h: 9.47 ng/mL
Time 6 h, pig ID 60, Study Group 2, SC, 100 mL, 16 min, rHuPH20 0 U/mL
  concentration at 6 h: 3.6 ng/mL
Time 6 h, pig ID 62, Study Group 2, SC, 50 mL, 8 min, rHuPH20 0 U/mL
  concentration at 6 h: 2.99 ng/mL
Time 6 h, pig ID 69, Study Group 2, SC, 25 mL, 4 min, rHuPH20 0 U/mL
  concentration at 6 h: 2.92 ng/mL
Time 6 h, pig ID 70, Study Group 2, SC, 10 mL, 1.6 min, rHuPH20 0 U/mL
  concentration at 6 h: 4.09 ng/mL
Time 8 h, pig ID 70, Study Group 2, SC, 10 mL, 1.6 min, rHuPH20 0 U/mL
  concentration at 8 h: 2.07 ng/mL
Pig 56, Study Group 3, SC, rHuPH20 10000 U/mL, 25 mL over 4 min, time […]
  concentration at […]: 29.2 ng/mL
Pig 58, Study Group 3, SC, rHuPH20 10000 U/mL, 50 mL over 8 min, time 2 h
  concentration at 2 h: 40.1 ng/mL
Pig 58, Study Group 3, SC, rHuPH20 10000 U/mL, 50 mL over 8 min, time 3 h
  concentration at 3 h: 10.8 ng/mL
Pig 58, Study Group 3, SC, rHuPH20 10000 U/mL, 50 mL over 8 min, time 4 h
  concentration at 4 h: 8.27 ng/mL
Pig 58, Study Group 3, SC, rHuPH20 10000 U/mL, 50 mL over 8 min, time 6 h
  concentration at 6 h: 2.65 ng/mL
Pig 64, Study Group 3, SC, rHuPH20 10000 U/mL, 100 mL over 16 min, time 0.05 h
  concentration at 0.05 h: 57 ng/mL
Pig 64, Study Group 3, SC, rHuPH20 10000 U/mL, 100 mL over 16 min, time 0.333 h
  concentration at 0.333 h: 253 ng/mL
Pig 64, Study Group 3, SC, rHuPH20 10000 U/mL, 100 mL over 16 min, time 0.5 h
  concentration at 0.5 h: 197 ng/mL
Pig 64, Study Group 3, SC, rHuPH20 10000 U/mL, 100 mL over 16 min, time 1 h
  concentration at 1 h: 101 ng/mL
Pig 64, Study Group 3, SC, rHuPH20 10000 U/mL, 100 mL over 16 min, time 2 h
  concentration at 2 h: 50.9 ng/mL
Pig 64, Study Group 3, SC, rHuPH20 10000 U/mL, 100 mL over 16 min, time 3 h
  concentration at 3 h: 29.8 ng/mL
